This passage reports logP and logD results from the SangsterLogP compilation.

Non-standard residues stand in square brackets, D forms with d. Residues, ends and D or L forms follow the SMILES beside them.

As usually defined, the logP is the decadic logarithm of the partition coefficient of the neutral form, usually between octanol and water. In general, logD refers to lipophilicity at a set pH, counting ionised and neutral species.

The nature of data set [1]: method code SF-HPLC, from DOI: 10.1002/etc.5620170216.
Data set [2] is described as follows: method code SF-HPLC, from PMID: 4074422. The conditions noted are these: pH 7.0.
The nature of data set [3]: method code SF-AS, from DOI: 10.1016/0147-6513(87)90041-8, PMID: 3830021.
Data set [4] in a line: method code SF-AS, from DOI: 10.1016/0006-2952(93)90503-o, PMID: 8373444. The following applies: pH 7.4.
Data set [5] can be described thus: method code SF-AS, from DOI: 10.1016/j.bmcl.2014.05.029, PMID: 24930836.
Data set [6] can be described thus: method code SF-RC, from DOI: 10.1021/jm300199g, PMID: 22540974. The following applies: pH 7.4.
A short description of data set [7]: method code SF-GR, from DOI: 10.1016/s0022-3565(25)32611-x, PMID: 7230009.
The nature of data set [8]: method code SF-RC, from DOI: 10.1515/ract-2013-2119.
Data set [9] is described as follows: method code SF-HPLC, from DOI: 10.1023/a:1007546905874, PMID: 11205732. The conditions noted are these: pH 7.4.
The nature of data set [10]: method code SF, from DOI: 10.1021/jm00123a006, PMID: 2918500. The following applies: pH 7.4.
Data set [11] is described as follows: method code SF-RC, from DOI: 10.1111/j.2042-7158.1976.tb04141.x, PMID: 6703.
Assay in data set [12]: not given
The source holds these as a separate data set.

Assay in data set [13]: not given
This is another data set of the same source.

Data set [14] in a line: method code SF-RC, from DOI: 10.1021/jm050166g.s001, PMID: 16162001. The conditions noted are these: pH 7.4.
Data set [15] is described as follows: method code SF, from PMID: 21667. The following applies: pH 10.1.
A short description of data set [16]: method code SF-RC, from DOI: 10.1016/j.nucmedbio.2007.03.011, PMID: 17591556. The conditions noted are these: pH 8.9.
Assay in data set [17]: not given
The source holds these as a separate data set.

Data set [18] in a line: method code SF-RC, from DOI: 10.1023/a:1015825912542, PMID: 1808606. The conditions noted are these: pH 7.2.
Data set [19] is described as follows: method code SF, from DOI: 10.1074/jbc.m009093200, PMID: 11092892. The following applies: pH 7.4.
The nature of data set [20]: method code SF-RC, from DOI: 10.1002/jlcr.3310, PMID: 26094722. The following applies: pH 7.4.
Data set [21] in a line: method code SF-HPLC, from DOI: 10.1002/jps.2600830510, PMID: 8071813.
Data set [22] can be described thus: method code SF, from Blakemore, C.; Brown, H.; Durant, J.; Emmett, C.; Ganellin, R.; Parsons, E.; Rasmussen, C. (1980). SK&F 92994: a new histamine H2-receptor antagonist. COMMUNICATIONS: Part II. Br. J. Pharmacol., …. The conditions noted are these: pH 8.5.
Data set [23] is described as follows: method code SF-HPLC, from DOI: 10.1023/a:1016462801968, PMID: 3334410.
The nature of data set [24]: method code SF-AS, from DOI: 10.1016/j.ejmech.2010.07.027, PMID: 20705371.
Data set [25] in a line: method code SF-AS, from DOI: 10.1016/j.ejmech.2015.02.036, PMID: 25728022. The following applies: pH 7.4.
Data set [26] in a line: method code SF-AS, from DOI: 10.1002/chin.197711219. The following applies: pH 7.4.
Assay in data set [27]: not given
The source holds these as a separate data set.

A short description of data set [28]: method code pH-metric titration, from DOI: 10.1002/(sici)1096-9063(199607)47:3<265::aid-ps416>3.0.co;2-f.
Data set [29] is described as follows: method code SF, from DOI: 10.1016/s0378-5173(97)00352-9.
Data set [30] is described as follows: method code SF-HPLC, from DOI: 10.1002/jps.2600840622. The conditions noted are these: pH 7.0.
Data set [31] can be described thus: method code SF-RC, from PMID: 2883979. The following applies: pH 10.0.
Assay in data set [32]: not given
The source holds these as a separate data set.

Data set [33] is described as follows: method code G-RC, from DOI: 10.1016/0300-483x(85)90031-9, PMID: 4049435.
Data set [34] is described as follows: method code SF-HPLC, from Bhosale, A.; Agrawal, G.; Mishra, P. (2004). Preparation and characterization of mutual prodrugs of ibuprofen. Indian Journal of Pharmaceutical Sciences, 66, 158-163. The following applies: pH 1.2.
Assay in data set [35]: not given
This is another data set of the same source.

The nature of data set [36]: method code SF-HPLC, from DOI: 10.1208/s12249-013-0046-y, PMID: 24297599. The following applies: pH 4.0.
Data set [37] can be described thus: from Xu, W.; Sun, J.; Zhang, T.; Ma, B.; Chen, D.; He, Z. (2007). Determination of equilibrium solubility of oridonin and its apparent oil-water partition coefficient by HPLC. Journal of Shenyang ….
Data set [38] can be described thus: method code SF-AS, from DOI: 10.1007/bf02857814, PMID: 1608986.

`c1ccc2cc3c(cc2c1)-c1cccc2cccc-3c12`: the logP in [1] was determined as 6.11.
Regarding `c1ccc2c(c1)-c1cccc3c1c-2cc1ccccc13`, the logP stood at 6.06.
`O=C1CCc2cc(OCCCCc3nnnn3C3CCCCC3)ccc2N1` showed a logD in data set [2] of 2.76.
Regarding `COC(=O)CCN(CCC(=O)OC)c1ccc(/N=N/c2c(Cl)cc([N+](=O)[O-])cc2Br)cc1`, the logP in [3] was found to be 4.1.
`O=C1OC(c2ccc(O)c(S(=O)(=O)O)c2)(c2ccc(O)c(S(=O)(=O)O)c2)c2c(Br)c(Br)c(Br)c(Br)c21`: the logD in data set [4] was -0.55.
In the case of `Cc1cc(=O)oc2cc(OCC(O)Cn3cncn3)cc(OCC(O)Cn3cncn3)c12` (centres undefined), the logP in [5] was found to be 0.65.
The compound `CC(C)[C@H](C(=O)NO)N(Cc1ccccc1)S(=O)(=O)c1ccc(OCCF)cc1` came in with a logD in data set [6] of 2.02.
`CC1C2CCC3C(O)C2(CC(O)C2(O)C1CC(O)C2(C)C)CC3(C)O` (centres undefined) gave a logP in data set [7] of 1.51.
For the compound `Fc1ccc(CN2CCN(Cc3cnn4ccccc34)CC2)cc1`, the logP in [8] was found to be 2.8.
As for `O=C1OC(c2ccc(O)cc2)(c2ccc(O)cc2)c2ccccc21`, in data set [9], the logD is 3.36.
For the compound `Nc1ccc(CCN2CCN(c3cccc(C(F)(F)F)c3)CC2)cc1I`, the logD in data set [10] stood at 3.69.
For the compound `O=C(CCCN1CCN(c2ccccn2)CC1)c1ccc(F)cc1`, in data set [11], the logP was 3.3.
`CCCN(C(C)C)C1COc2cccc(C(=O)NC(C)C)c2C1` (centres undefined) yielded a logP in [12] of 3.27.
`COc1cc2c(N)nc(N3CCN(C(=O)OCC(C)(C)O)CC3)nc2c(OC)c1OC`: the logP in data set [13] came out at 1.3.
In the case of `CNc1ccc(C=Cc2ccc(OCC(CO)CF)cc2)cc1` (centres undefined), the logD in data set [14] was 2.95.
The compound `COc1ccccc1N1CCN(CCCNc2cc(=O)n(C)c(=O)n2C)CC1` showed a logD in data set [15] of 1.6.
In turn, `CN(C(=O)CF)c1cccc(-c2ccnc3c(C(=O)c4cccs4)cnn23)c1` gave a logD in data set [16] of 1.4.
Consider `CC[C@H]1C[C@]2(C)[C@@H](O)CC[C@H]2[C@@H]2CCc3cc(O)ccc3[C@@H]12`, for which the logP in data set [17] was 3.8.
With `CC(=O)N[C@H](Cc1ccccc1)C(=O)N[C@H](Cc1ccccc1)C(N)=O` (Ac-[dF]-[dF]-NH2), the logD in data set [18] is 1.19.
The compound `COC1=C(OC)C(=O)C(CCCCCCCCCCBr)=C(C)C1=O` returned a logD in [19] of 2.49.
The compound `CC(C)(C)n1ncc(OCc2cccc(Cn3cc(CCF)nn3)c2)c(Cl)c1=O` displayed a logD in data set [20] of 2.54.
Regarding `O=C(OCCCN1CCOCC1)c1ccccc1Nc1c(Cl)cccc1Cl`, the logP in data set [21] came to 2.81.
Turning to `Cc1[nH]cnc1CSCCNc1nc(=O)c(Cc2ccc3c(c2)OCO3)c[nH]1`, the logD in data set [22] amounted to 2.11.
`CC(C)(C)C(=O)OCC(COC(=O)C(C)(C)C)OCn1cnc2c(=O)[nH]c(N)nc21` showed a logP in [23] of 1.71.
The compound `CC(C)(C)c1cc(CN2CCOCC2)c(O)c(CN2CCOCC2)c1` displayed a logP in data set [24] of 2.03.
Take `C=CCn1c(C)nc2cc(Nc3nc(N4CCOCC4)nc4[nH]cnc34)ccc21`: the pH-dependent lipophilicity (logD) in data set [25] turned out to be 1.59.
Compound `O=C1C(=C2C=CN(CCN3CCOCC3)C=C2)C(=O)c2ccccc21` came in with a logD in data set [26] of 2.01.
Turning to `O=C1OC2(c3ccc(O)cc3Oc3cc(O)ccc32)c2ccccc21`, the logP in data set [27] came to 4.3.
The compound `CCO/N=C(\CC)C1=C(O)CC(c2c(C)cc(C)cc2C)CC1=O` (centres undefined) registered a logP in [28] of 4.46.
In turn, `C/C(=C(/OCCOc1ccc(Cl)cc1)c1ccc(Cl)cc1Cl)n1ccnc1` gave a logP in [29] of 5.76.
For the compound `CCCN1CCN(c2cc3c(cc2F)c(=O)c(C(=O)O)cn3CC)CC1`, the logD in [30] amounted to 1.05.
With `CN1CCC(N(Cc2ccccc2)c2ccccc2)CC1`, in data set [31], the logD turned out to be 2.6.
Take `CC(=O)C1=C(O)C2C3c4c[nH]c5cccc(c45)CC3C(C)(C)N2C1=O` (centres undefined): the logP in [32] was found to be 3.83.
The compound `c1ccc2c(c1)ccc1[nH]c3ccc4ccccc4c3c12` showed a logP in data set [33] of 5.55.
For the compound `CC(C)Cc1ccc(C(C)C(=O)Oc2ccccc2C(N)=O)cc1` (centres undefined), the logD in data set [34] was 1.54.
Compound `c1ccc2c3c(ccc2c1)-c1cccc2cccc-3c12` yielded a logP in [35] of 6.04.
Compound `CC[C@@]1(O)C(=O)OCc2c1cc1n(c2=O)Cc2cc3c(N)cccc3nc2-1` came in with a logD in data set [36] of 1.26.
With `C=C1C(=O)[C@]23C(O)C1CC[C@H]2[C@@]12CO[C@]3(O)C(O)[C@@H]1C(C)(C)CCC2O` (some centres undefined), the logP in [37] worked out at 1.66.
Turning to `CCn1cc(C(=O)NC(CCCNC(=N)N)C(=O)OC)c(=O)c2ccc(C)nc21` (centres undefined), in data set [38], the logP was 0.39.
